Reference: ChEMBL document CHEMBL3797052 (Eur J Med Chem, 2016)

test system: not listed separately; experiment: Antiproliferative activity against human COLO205 cells assessed as growth inhibition after 48 hrs by sulforhodamine B assay; format: functional; conditions: COLO 205, 48 h

Structure (SMILES)	GI50	TGI
CNC(=O)c1cc(Oc2ccc3nc(NC(=O)c4cc(C(F)(F)F)cc(C(F)(F)F)c4)sc3c2)ccn1	2.82 µM	8.21 µM
CNC(=O)c1cc(Oc2ccc(NC(=O)Nc3ccc(Cl)c(C(F)(F)F)c3)cc2)ccn1 [SORAFENIB]	2 µM	7.94 µM

same assay, conditions: COLO 205, 48 h, read-out: LC50 (the source's name)

Structure (SMILES)	CC50
CNC(=O)c1cc(Oc2ccc3nc(NC(=O)c4cc(C(F)(F)F)cc(C(F)(F)F)c4)sc3c2)ccn1	32.8 µM
CNC(=O)c1cc(Oc2ccc(NC(=O)Nc3ccc(Cl)c(C(F)(F)F)c3)cc2)ccn1 [SORAFENIB]	31.6 µM

test system: U-251; experiment: Antiproliferative activity against human U251 cells assessed as cell growth at 10^-4 M after 48 hrs by sulforhodamine B assay; format: functional; conditions: U-251, 48 h, read-out: Activity

Structure (SMILES)	growth at 100 µM
CNC(=O)c1cc(Oc2ccc3nc(NC(=O)c4cc(C(F)(F)F)cc(C(F)(F)F)c4)sc3c2)ccn1	-73%

test system: MDA-MB-468; experiment: Antiproliferative activity against human MDA-MB-468 cells assessed as cell growth at […] after 48 hrs by sulforhodamine B assay; format: functional; conditions: MDA-MB-468, 48 h, read-out: Activity

Structure (SMILES)	growth at 0.01 µM
CNC(=O)c1cc(Oc2ccc3nc(NC(=O)c4cc(C(F)(F)F)cc(C(F)(F)F)c4)sc3c2)ccn1	92%

test system: not listed separately; experiment: Antiproliferative activity against human OVCAR5 cells assessed as growth inhibition after 48 hrs by sulforhodamine B assay; format: functional; conditions: OVCAR-5, 48 h

Structure (SMILES)	GI50	TGI
CNC(=O)c1cc(Oc2ccc3nc(NC(=O)c4cc(C(F)(F)F)cc(C(F)(F)F)c4)sc3c2)ccn1	4.23 µM	25 µM
CNC(=O)c1cc(Oc2ccc(NC(=O)Nc3ccc(Cl)c(C(F)(F)F)c3)cc2)ccn1 [SORAFENIB]	3.16 µM	20 µM

same assay, conditions: OVCAR-5, 48 h, read-out: LC50 (the source's name)

Structure (SMILES)	CC50
CNC(=O)c1cc(Oc2ccc3nc(NC(=O)c4cc(C(F)(F)F)cc(C(F)(F)F)c4)sc3c2)ccn1	> 100 µM
CNC(=O)c1cc(Oc2ccc(NC(=O)Nc3ccc(Cl)c(C(F)(F)F)c3)cc2)ccn1 [SORAFENIB]	79.4 µM

test system: not listed separately; experiment: Antiproliferative activity against human Hs 578T cells assessed as cell growth at 10^-8 M after 48 hrs by sulforhodamine B assay; format: functional; conditions: read-out: Activity

Structure (SMILES)	growth at 0.01 µM
CNC(=O)c1cc(Oc2ccc3nc(NC(=O)c4cc(C(F)(F)F)cc(C(F)(F)F)c4)sc3c2)ccn1	94%

test system: not listed separately; experiment: Antiproliferative activity against human SF539 cells assessed as cell growth at 10^-8 M after 48 hrs by sulforhodamine B assay; format: functional; conditions: SF-539, 48 h, read-out: Activity

Structure (SMILES)	growth at 0.01 µM
CNC(=O)c1cc(Oc2ccc3nc(NC(=O)c4cc(C(F)(F)F)cc(C(F)(F)F)c4)sc3c2)ccn1	101%

test system: not listed separately; experiment: Antiproliferative activity against human IGROV1 cells assessed as cell growth at 10^-8 M after 48 hrs by sulforhodamine B assay; format: functional; conditions: IGROV-1, 48 h, read-out: Activity

Structure (SMILES)	growth at 0.01 µM
CNC(=O)c1cc(Oc2ccc3nc(NC(=O)c4cc(C(F)(F)F)cc(C(F)(F)F)c4)sc3c2)ccn1	106%

test system: NCI-H226; experiment: Antiproliferative activity against human NCI-H226 cells assessed as cell growth at 10^-4 M after 48 hrs by sulforhodamine B assay; format: functional; conditions: NCI-H226, 48 h, read-out: Activity

Structure (SMILES)	growth at 100 µM
CNC(=O)c1cc(Oc2ccc3nc(NC(=O)c4cc(C(F)(F)F)cc(C(F)(F)F)c4)sc3c2)ccn1	-59%

test system: not listed separately; experiment: Antiproliferative activity against human SW620 cells assessed as cell growth at 10^-6 M after 48 hrs by sulforhodamine B assay; format: functional; conditions: SW-620, 48 h, read-out: Activity

Structure (SMILES)	growth at 1 µM
CNC(=O)c1cc(Oc2ccc3nc(NC(=O)c4cc(C(F)(F)F)cc(C(F)(F)F)c4)sc3c2)ccn1	105%

test system: not listed separately; experiment: Antiproliferative activity against human HCC2998 cells assessed as cell growth at 10^-7 M after 48 hrs by sulforhodamine B assay; format: functional; conditions: HCC 2998, 48 h, read-out: Activity

Structure (SMILES)	growth at 0.1 µM
CNC(=O)c1cc(Oc2ccc3nc(NC(=O)c4cc(C(F)(F)F)cc(C(F)(F)F)c4)sc3c2)ccn1	108%

test system: NCI-H322M; experiment: Antiproliferative activity against human NCI-H322M cells assessed as cell growth at 10^-6 M after 48 hrs by sulforhodamine B assay; format: functional; conditions: read-out: Activity

Structure (SMILES)	growth at 1 µM
CNC(=O)c1cc(Oc2ccc3nc(NC(=O)c4cc(C(F)(F)F)cc(C(F)(F)F)c4)sc3c2)ccn1	52%

test system: not listed separately; experiment: Antiproliferative activity against human OVCAR3 cells assessed as cell growth at 10^-7 M after 48 hrs by sulforhodamine B assay; format: functional; conditions: OVCAR-3, 48 h, read-out: Activity

Structure (SMILES)	growth at 0.1 µM
CNC(=O)c1cc(Oc2ccc3nc(NC(=O)c4cc(C(F)(F)F)cc(C(F)(F)F)c4)sc3c2)ccn1	102%

test system: not listed separately; experiment: Antiproliferative activity against human OVCAR3 cells assessed as cell growth at 10^-8 M after 48 hrs by sulforhodamine B assay; format: functional; conditions: OVCAR-3, 48 h, read-out: Activity

Structure (SMILES)	growth at 0.01 µM
CNC(=O)c1cc(Oc2ccc3nc(NC(=O)c4cc(C(F)(F)F)cc(C(F)(F)F)c4)sc3c2)ccn1	104%

test system: not listed separately; experiment: Antiproliferative activity against human HOP92 cells assessed as cell growth at 10^-6 M after 48 hrs by sulforhodamine B assay; format: functional; conditions: HOP-92, 48 h, read-out: Activity

Structure (SMILES)	growth at 1 µM
CNC(=O)c1cc(Oc2ccc3nc(NC(=O)c4cc(C(F)(F)F)cc(C(F)(F)F)c4)sc3c2)ccn1	68%

test system: MDA-MB-435; experiment: Antiproliferative activity against human MDA-MB-435 cells assessed as cell growth at 10^-7 M after 48 hrs by sulforhodamine B assay; format: functional; conditions: MDA-MB-435, 48 h, read-out: Activity

Structure (SMILES)	growth at 0.1 µM
CNC(=O)c1cc(Oc2ccc3nc(NC(=O)c4cc(C(F)(F)F)cc(C(F)(F)F)c4)sc3c2)ccn1	92%

test system: SK-MEL-5; experiment: Antiproliferative activity against human SK-MEL-5 cells assessed as cell growth at 10^-8 M after 48 hrs by sulforhodamine B assay; format: functional; conditions: SK-MEL-5, 48 h, read-out: Activity

Structure (SMILES)	growth at 0.01 µM
CNC(=O)c1cc(Oc2ccc3nc(NC(=O)c4cc(C(F)(F)F)cc(C(F)(F)F)c4)sc3c2)ccn1	95%

test system: not listed separately; experiment: Antiproliferative activity against human OVCAR3 cells assessed as cell growth at 10^-6 M after 48 hrs by sulforhodamine B assay; format: functional; conditions: OVCAR-3, 48 h, read-out: Activity

Structure (SMILES)	growth at 1 µM
CNC(=O)c1cc(Oc2ccc3nc(NC(=O)c4cc(C(F)(F)F)cc(C(F)(F)F)c4)sc3c2)ccn1	90%

test system: 786-0; experiment: Antiproliferative activity against human 786-0 cells assessed as growth inhibition after 48 hrs by sulforhodamine B assay; format: functional; conditions: 786-0, 48 h

Structure (SMILES)	GI50	LC50	TGI
CNC(=O)c1cc(Oc2ccc3nc(NC(=O)c4cc(C(F)(F)F)cc(C(F)(F)F)c4)sc3c2)ccn1	2.55 µM	45.2 µM	8.07 µM
CNC(=O)c1cc(Oc2ccc(NC(=O)Nc3ccc(Cl)c(C(F)(F)F)c3)cc2)ccn1 [SORAFENIB]	3.16 µM	–	10 µM
